Experimental data: JP2006083192A, “サイトカイン異常産生又は接着作用の亢進に伴う疾患を予防又は治療するための薬剤” (Otsuka Pharmaceutical Co Ltd, priority 1996, dated 1998)

How the values were obtained:
Assay type in all cases: cell-based
IL-1 production (IL−1産生) = assay: 薬理試験4 IL−1産生抑制作用 (inhibition of IL-1 production, human whole blood); conditions: same method as pharmacological test 3 (human whole blood, LPS, 37℃, 24 h)
IL-6 production (IL−6産生) = assay: 薬理試験5 IL−6産生抑制作用 (inhibition of IL-6 production, human whole blood); conditions: same method as pharmacological test 3 (human whole blood, LPS, 37℃, 24 h)
[1] = tested on: IFN-γ production (IFN−γ産生); assay: 薬理試験6 IFN−γ産生抑制作用 (inhibition of IFN-γ production, human whole blood); conditions: concanavalin A (ConA), 37℃, 48 h, ELISA

IC50 (IL-1 production (IL−1産生)): 80 µM
IC50 (IL-6 production (IL−6産生)): ≥ 100 µM
IC50 [1]: 5 µM
Compound: CCOc1ccc(-c2nc(-c3cccc(C(=O)O)n3)cs2)cc1OCC [実施例2]
